Reference: the supplement of paper PMC10307832

Columns and labels:
Assay in all cases: relative viability (nuclei count vs DMSO), 5 days (fraction); higher = more cells survive
[1] = test system: NCI-H596
How it was run: (§1)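 Each reported value is a median over duplicate plates. It expresses relative viability: treated-well nuclei count divided by vehicle-well nuclei count. Lung cancer cell lines in 1536-well plates were dosed by pin tool a day after seeding, alone with one drug or with a fixed anchor-drug dose plus five library-drug doses (not always all listed) in √10 steps, and nuclei were counted after 5 days.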

[2] = test system: PC-3 [JPC-3]
How it was run: as §1

[3] = test system: NCI-H1915
How it was run: as §1

[4] = test system: NCI-H2087
How it was run: as §1

[5] = test system: 201T
How it was run: as §1

[6] = test system: NCI-H650
How it was run: as §1

[7] = test system: BEN
How it was run: as §1

[8] = test system: LCLC-97TM1
How it was run: as §1

[9] = test system: NCI-H441
How it was run: as §1

[10] = test system: NCI-H460
How it was run: as §1

[11] = test system: NCI-H1944
How it was run: as §1

[12] = test system: NCI-H727
How it was run: as §1

[13] = test system: A-427
How it was run: as §1

[14] = test system: ABC-1
How it was run: as §1

[15] = test system: NCI-H1651
How it was run: as §1

[16] = test system: H3255
How it was run: as §1

[17] = test system: LC-2-ad
How it was run: as §1

[18] = test system: CAL-12T
How it was run: as §1

Q: What does the source list for `COc1cc2nccc(Oc3ccc(NC(=O)Nc4cc(C)on4)c(Cl)c3)c2cc1OC` [Tivozanib] + NC(=O)Nc1cc(-c2cccc(F)c2)sc1C(=O)N[C@H]1CCCNC1 [AZD7762] (partner 0.2 µM)?
A: relative viability ([1]; first compound 0.005 µM): 1.03; relative viability ([1]; first compound 0.01581 µM): 1.1; relative viability ([1]; first compound 0.05 µM): 1.44; relative viability ([1]; first compound 0.5 µM): 1.06; relative viability ([2]; first compound 0.01581 µM): 0.857; relative viability ([2]; first compound 0.05 µM): 0.927; relative viability ([2]; first compound 0.1581 µM): 0.741; relative viability ([2]; first compound 0.5 µM): 0.8; relative viability ([3]; first compound 0.005 µM): 0.728; relative viability ([3]; first compound 0.01581 µM): 0.687; relative viability ([3]; first compound 0.05 µM): 0.711; relative viability ([3]; first compound 0.1581 µM): 0.717; relative viability ([3]; first compound 0.5 µM): 0.618; relative viability ([4]; first compound 0.005 µM): 1.3; relative viability ([4]; first compound 0.01581 µM): 1.3; relative viability ([4]; first compound 0.05 µM): 1.28; relative viability ([4]; first compound 0.1581 µM): 1.55; relative viability ([4]; first compound 0.5 µM): 1.22; relative viability ([5]; first compound 0.005 µM): 0.599; relative viability ([5]; first compound 0.01581 µM): 0.575; relative viability ([5]; first compound 0.05 µM): 0.659; relative viability ([5]; first compound 0.1581 µM): 0.595; relative viability ([5]; first compound 0.5 µM): 0.601; relative viability ([6]; first compound 0.005 µM): 0.771; relative viability ([6]; first compound 0.01581 µM): 1.08; relative viability ([6]; first compound 0.05 µM): 0.976; relative viability ([6]; first compound 0.1581 µM): 0.958; relative viability ([6]; first compound 0.5 µM): 0.683; relative viability ([7]; first compound 0.005 µM): 0.6; relative viability ([7]; first compound 0.01581 µM): 0.712; relative viability ([7]; first compound 0.05 µM): 0.869; relative viability ([7]; first compound 0.1581 µM): 0.375; relative viability ([7]; first compound 0.5 µM): 0.737; relative viability ([8]; first compound 0.005 µM): 0.128; relative viability ([8]; first compound 0.01581 µM): 0.274; relative viability ([8]; first compound 0.05 µM): 0.343; relative viability ([8]; first compound 0.1581 µM): 0.208; relative viability ([8]; first compound 0.5 µM): 0.262; relative viability ([9]; first compound 0.005 µM): 1.05; relative viability ([9]; first compound 0.01581 µM): 0.935; relative viability ([9]; first compound 0.05 µM): 1.28; relative viability ([9]; first compound 0.1581 µM): 1.35; relative viability ([9]; first compound 0.5 µM): 1.08; relative viability ([10]; first compound 0.005 µM): 0.533; relative viability ([10]; first compound 0.01581 µM): 0.689; relative viability ([10]; first compound 0.05 µM): 0.651; relative viability ([10]; first compound 0.1581 µM): 0.566; relative viability ([10]; first compound 0.5 µM): 0.471; relative viability ([11]; first compound 0.005 µM): 0.392; relative viability ([11]; first compound 0.01581 µM): 0.552; relative viability ([11]; first compound 0.05 µM): 0.378; relative viability ([11]; first compound 0.1581 µM): 0.452; relative viability ([11]; first compound 0.5 µM): 0.487; relative viability ([12]; first compound 0.005 µM): 0.548; relative viability ([12]; first compound 0.01581 µM): 0.657; relative viability ([12]; first compound 0.05 µM): 0.408; relative viability ([12]; first compound 0.1581 µM): 0.442; relative viability ([12]; first compound 0.5 µM): 0.697; relative viability ([13]; first compound 0.005 µM): 0.75; relative viability ([13]; first compound 0.01581 µM): 0.795; relative viability ([13]; first compound 0.05 µM): 0.728; relative viability ([13]; first compound 0.1581 µM): 0.68; relative viability ([13]; first compound 0.5 µM): 0.719; relative viability ([14]; first compound 0.005 µM): 1.05; relative viability ([14]; first compound 0.01581 µM): 0.865; relative viability ([14]; first compound 0.05 µM): 0.895; relative viability ([14]; first compound 0.1581 µM): 1.12; relative viability ([14]; first compound 0.5 µM): 0.785; relative viability ([15]; first compound 0.005 µM): 0.381; relative viability ([15]; first compound 0.01581 µM): 0.429; relative viability ([15]; first compound 0.05 µM): 0.551; relative viability ([15]; first compound 0.1581 µM): 0.301; relative viability ([15]; first compound 0.5 µM): 0.421; relative viability ([16]; first compound 0.005 µM): 0.672; relative viability ([16]; first compound 0.01581 µM): 0.86; relative viability ([16]; first compound 0.05 µM): 0.961; relative viability ([16]; first compound 0.1581 µM): 0.735; relative viability ([16]; first compound 0.5 µM): 0.861; relative viability ([17]; first compound 0.005 µM): 0.821; relative viability ([17]; first compound 0.01581 µM): 0.846; relative viability ([17]; first compound 0.05 µM): 0.856; relative viability ([17]; first compound 0.1581 µM): 0.881; relative viability ([17]; first compound 0.5 µM): 0.815; relative viability ([18]; first compound 0.005 µM): 0.483; relative viability ([18]; first compound 0.01581 µM): 0.584; relative viability ([18]; first compound 0.05 µM): 0.668; relative viability ([18]; first compound 0.1581 µM): 0.722; relative viability ([18]; first compound 0.5 µM): 0.71
